Laboratory results: patent US11395803B2, “Composition for controlled release of physiologically active substances and process for its preparation” (BIOSCREEN TECHNOLOGIES S.R.L., priority 2017, dated 2022)

Assays:
[1] = Degree of ruminal bypass, in vitro (pharmaceutical dissolver / Daisy II ANKOM artificial rumen)
Protocol: In the context of the present invention, the term “ruminal by-pass” indicates the percentage amount by weight of substance reaching the animal post-ruminal area, namely the stomach and the intestine, with respect to the total amount by weight of the orally administered substance.
The experimental conditions of use were 39° C., 15 rpm, 8 hours presence in the solution with “ruminal” pH of about 6.8. • Daisy^II ANKOM: commercially available laboratory artificial rumen, for determining the degree of ruminal bypass. The experimental conditions of use were 39° C., 8 hours presence in ruminal conditions, buffer solution at “ruminal” pH with insertion of “ruminal inoculum” and re-creation of ruminal anaerobiosis according to a university procedure known to those skilled in the art. The pH normally tested in the quality control phase is 6.8. • Pharmaceutical dissolver for determining the degree of post-ruminal digestibility. The experimental conditions of use followed the procedure known to experts in the field as “Boisen Test” and, in particular, they were: • 39° C., 30 rpm, 2 h, buffer solution with “gastric” pH (2.0)+pepsin inoculum. • 39° C., 30 rpm, 4 h, buffer solution with “intestinal” pH (6.8)+pancreatine inoculum. • 39° C., 30 rpm, 18 h, buffer solution with “intestinal” pH (6.8)+lipase and bile extract inoculum.
Then the microgranules were subjected to an evaluation of the degree of ruminal by-pass, post-ruminal digestibility and total bioavailability using the Boisen method. For a complete description of the Boisen method, reference is made to the publication S. Boisen, J. A. Fernàndez “Prediction of total tract digestibility of energy feedstuffs and […] by in vitro analyses” Animal Feed Science Technology 68, 277-286, 1997.

[2] = Post-ruminal digestibility, in vitro (pharmaceutical dissolver, Boisen Test)
Protocol: Whereas, the term “post-ruminal digestibility” of a substance means the percentage amount by weight of substance that is freed from the coating exclusively in the post-ruminal tract, dissolving and so making it digestible or absorbable, with respect to the total amount by weight of the orally administered substance.
The experimental conditions of use were 39° C., 15 rpm, 8 hours presence in the solution with “ruminal” pH of about 6.8. • Daisy^II ANKOM: commercially available laboratory artificial rumen, for determining the degree of ruminal bypass. The experimental conditions of use were 39° C., 8 hours presence in ruminal conditions, buffer solution at “ruminal” pH with insertion of “ruminal inoculum” and re-creation of ruminal anaerobiosis according to a university procedure known to those skilled in the art. The pH normally tested in the quality control phase is 6.8. • Pharmaceutical dissolver for determining the degree of post-ruminal digestibility. The experimental conditions of use followed the procedure known to experts in the field as “Boisen Test” and, in particular, they were: • 39° C., 30 rpm, 2 h, buffer solution with “gastric” pH (2.0)+pepsin inoculum. • 39° C., 30 rpm, 4 h, buffer solution with “intestinal” pH (6.8)+pancreatine inoculum. • 39° C., 30 rpm, 18 h, buffer solution with “intestinal” pH (6.8)+lipase and bile extract inoculum. […]

[3] = Total bioavailability, in vitro (combination of ruminal bypass and post-ruminal digestibility, Boisen method)
[4] = theoretical administration of 100 g of choline chloride
[5] = theoretical administration of 200 g of product

SMILES: C[N+](C)(C)CCO.[Cl-] [Product A, choline chloride]
- Bypassed Choline Chloride [1, 4]: 0 g
- Choline Chloride lost in the rumen in 8 h [1, 4]: 101 g
- Bypassed Choline Chloride [1, 5]: 0 g
- Choline Chloride lost in the rumen in 8 h [1, 5]: 198 g
- Choline Chloride in faeces [2, 4]: 0 g
- Choline Chloride in faeces [2, 5]: 0 g
- Bioavailable Choline Chloride [3, 4]: 0 g
- Bioavailable Choline Chloride [3, 5]: 0 g
